According to patent US4356183A, “Antihypertensive 4-thiazolidinecarboxylic acids (pyridyl derivatives)” (Santen Pharmaceutical Co., Ltd., priority 1978, dated 1982):

Columns and labels:
[1] = system: contractile response of isolated guinea pig ileum to angiotensin I; experiment: Inhibition of contractile response of isolated guinea pig ileum to angiotensin I; type: cell-based; settings: Cavia porcellus, angiotensin I 0.1 μg/ml; compound added 5 min before; 30° C.; read-out: Angiotensin I IC50 (50% inhibition of angiotensin I activity inducing the contraction of guinea pig ileum)
Source text: As the method of measurement of angiotensin I-converting enzyme activity, bioassay for the contractile response of isolated smooth muscle or the pressor response of normal animals and biochemical assay for the enzyme isolated from lung or other organs of animals are known. The former is found more advantageous than the latter for the examination of the convertion of angiotensin I to angiotensin II in vivo.
In the present study, therefore, we adopted the bioassay for contractile response of isolated guinea pig ileum to angiotensin I.
(§1) Measurement of inhibitory activity of angiotensin I-converting enzyme
(§2) Isolated guinea pig ileum was suspended in the organ bath containing 20 ml of Tyrode's solution of 30° C. gassed with 95% O2 +5% CO2. The contraction induced by the addition of angiotensin I (0.1 μg/ml) at intervals of 10 minutes was recorded on a recticorder (Nihon Koden) for 90 seconds using FD pick up (ST-1T-H, Nihon Koden).
(§3) The test compounds were added to the bath 5 minutes before the addition of angiotensin I.
The inhibitory activity of angiotensin I-converting enzyme was calculated by the following formula. [formula] A: contractile intensity of angiotensin I before addition of the compound B: contractile intensity of angiotensin I after addition of the compound

[2] = system: contractile response to bradykinin (isolated guinea pig ileum); experiment: Augmentation of contractile response of isolated guinea pig ileum to bradykinin; type: cell-based; settings: Cavia porcellus, bradykinin 0.005 μg/ml; compound added 5 min before; 30° C.; read-out: Bradykinin AC50 (50% augmentation of bradykinin activity inducing the contraction of guinea pig ileum)
Procedure: as §2, §3
From the fact that kininase II, which destroys bradykinin having contractive action on isolated guinea pig ileum, is thought to be identical with angiotensin I-converting enzyme, augmentation of the contractile response to bradykinin by test compounds was examined by using bradykinin (0.005 μg/ml) in place of angiotensin I according to the above mentioned method.

[3] = biological target: T1, angiotensin I-converting enzyme (Oryctolagus cuniculus, UniProt P12822); experiment: Inhibition of angiotensin I-converting enzyme by spectrophotometry (HHL substrate); type: biochemical; settings: enzyme from rabbit lung; 5 mM HHL; pH 8.3; 37° C., 30 min
T1 construct: angiotensin I-converting enzyme extracted from rabbit lung; from tissue; host or cells: rabbit lung
T1 sequence (P12822 34-1310): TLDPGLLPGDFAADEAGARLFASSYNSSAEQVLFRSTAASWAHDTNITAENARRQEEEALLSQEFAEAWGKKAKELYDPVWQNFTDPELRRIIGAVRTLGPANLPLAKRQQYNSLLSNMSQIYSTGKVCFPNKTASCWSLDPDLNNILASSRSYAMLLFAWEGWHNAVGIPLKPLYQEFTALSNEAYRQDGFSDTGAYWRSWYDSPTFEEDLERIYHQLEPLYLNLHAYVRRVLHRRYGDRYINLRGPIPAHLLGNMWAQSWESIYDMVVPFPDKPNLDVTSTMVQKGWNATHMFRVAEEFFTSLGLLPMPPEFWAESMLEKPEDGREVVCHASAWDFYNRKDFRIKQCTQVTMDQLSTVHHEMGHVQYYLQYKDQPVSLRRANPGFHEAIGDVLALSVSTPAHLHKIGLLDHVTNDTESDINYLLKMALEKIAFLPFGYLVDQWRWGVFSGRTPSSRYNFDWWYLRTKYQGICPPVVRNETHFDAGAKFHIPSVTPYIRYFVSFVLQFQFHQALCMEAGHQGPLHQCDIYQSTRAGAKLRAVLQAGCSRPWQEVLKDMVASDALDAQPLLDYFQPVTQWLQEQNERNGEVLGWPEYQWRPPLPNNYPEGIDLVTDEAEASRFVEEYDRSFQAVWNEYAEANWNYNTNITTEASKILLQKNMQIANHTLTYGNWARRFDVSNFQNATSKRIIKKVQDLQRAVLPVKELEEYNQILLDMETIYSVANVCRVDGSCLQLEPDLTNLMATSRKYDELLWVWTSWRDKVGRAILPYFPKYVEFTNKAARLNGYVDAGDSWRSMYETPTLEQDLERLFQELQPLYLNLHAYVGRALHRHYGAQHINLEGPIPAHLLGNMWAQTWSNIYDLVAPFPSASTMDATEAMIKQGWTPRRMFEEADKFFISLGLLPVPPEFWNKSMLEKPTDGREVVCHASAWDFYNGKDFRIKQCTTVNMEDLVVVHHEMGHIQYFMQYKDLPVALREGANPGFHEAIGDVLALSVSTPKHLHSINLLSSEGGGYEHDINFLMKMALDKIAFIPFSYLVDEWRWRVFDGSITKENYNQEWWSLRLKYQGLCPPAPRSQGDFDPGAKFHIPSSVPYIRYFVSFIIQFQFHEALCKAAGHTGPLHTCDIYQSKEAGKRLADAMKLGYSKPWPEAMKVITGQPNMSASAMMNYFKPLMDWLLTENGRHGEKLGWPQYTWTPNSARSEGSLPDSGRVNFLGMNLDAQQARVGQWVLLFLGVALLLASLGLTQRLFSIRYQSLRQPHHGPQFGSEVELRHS
Procedure: That is, the absorbance of hippuric acid was measured, which is liberated by incubating hippuryl-L-histidyl-L-leucine (HHL) as substrate in the presence of angiotensin I-converting enzyme extracted from rabbit lung.
as §1
The reaction mixture is as follows:
100 mM phosphate buffer (pH 8.3)
10^-3 ~10^-9 M enzyme inhibitor
0.25 ml of the above mixture was incubated at 37° C. for 30 minutes and the reaction was stopped by adding 0.25 ml of 1 N hydrochloric acid. To this solution, 1.5 ml of ethyl acetate was added in order to extract hippuric acid. 1.0 ml of ethyl acetate layer was collected and evaporated to dryness, and the residue obtained was dissolved in 1.0 ml of water.
The inhibitory activity of angiotensin I-converting enzyme was calculated by the following formula: [formula]

[4] = system: pressor response to angiotensin I; experiment: Inhibition of pressor response to angiotensin I in rats after oral administration; type: in vivo, rat (male Wistar); settings: angiotensin I 300 ng/kg i.v.
Procedure: Male Wistar strain rats weighing about 200-300 g were used.
Under ether anesthesia, polyethylene cannulae are inserted into carotid arthery and jugular vein. The cannula to carotid artery is connected to an electric transducer, while the cannula to jugular vein is connected to an apparatus for continuous infusion. After the complete recovery from anesthesia, angiotensin I is infused intravenously in a dose of 300 ng/kg by the apparatus for continuous infusion, and the pressor response is recorded by polygraph (Nihon Koden, RM-150).
The compounds of this invention suspended in 0.5% tragacanth solution are administered orally in a dose of 0.3 ml per 100 g of body weight, and the pressor response to angiotensin I infused intravenously is measured with time.
The inhibitory activity of the compounds against angiotensin I-converting enzyme is expressed as the percent inhibition of pressor response to angiotensin I.

| SMILES | IC50 [1] | AC50 [2] | IC50 [3] | other results |
| --- | --- | --- | --- | --- |
| C[C@H](CS)C(=O)N1C(C2CCCCC2)SC[C@H]1C(=O)O (stereo partly shown) [Compound 4] | 50 nM | 2 nM | 120 nM | Inhibition (%) of pressor response to angiotensin I, 5 min ([4]; 5 min, dose: 3, 45, 49 1.8 mg/kg, 4, 46 1.3, 50 1.4, 76 2.0, 77 1.5): 46.7%; Inhibition (%) of pressor response to angiotensin I, 15 min ([4]; 15 min, dose: 3, 45, 49 1.8 mg/kg, 4, 46 1.3, 50 1.4, 76 2.0, 77 1.5): 46.5%; Inhibition (%) of pressor response to angiotensin I, 25 min ([4]; 25 min, dose: 3, 45, 49 1.8 mg/kg, 4, 46 1.3, 50 1.4, 76 2.0, 77 1.5): 37.2%; Inhibition (%) of pressor response to angiotensin I, 35 min ([4]; 35 min, dose: 3, 45, 49 1.8 mg/kg, 4, 46 1.3, 50 1.4, 76 2.0, 77 1.5): 32.2%; Inhibition (%) of pressor response to angiotensin I, 45 min ([4]; 45 min, dose: 3, 45, 49 1.8 mg/kg, 4, 46 1.3, 50 1.4, 76 2.0, 77 1.5): 28.8%; Inhibition (%) of pressor response to angiotensin I, 55 min ([4]; 55 min, dose: 3, 45, 49 1.8 mg/kg, 4, 46 1.3, 50 1.4, 76 2.0, 77 1.5): 27.5%; Inhibition (%) of pressor response to angiotensin I, 65 min ([4]; 65 min, dose: 3, 45, 49 1.8 mg/kg, 4, 46 1.3, 50 1.4, 76 2.0, 77 1.5): 27.5%; Inhibition (%) of pressor response to angiotensin I, 75 min ([4]; 75 min, dose: 3, 45, 49 1.8 mg/kg, 4, 46 1.3, 50 1.4, 76 2.0, 77 1.5): 13.8%; Inhibition (%) of pressor response to angiotensin I, 85 min ([4]; 85 min, dose: 3, 45, 49 1.8 mg/kg, 4, 46 1.3, 50 1.4, 76 2.0, 77 1.5): 14.5%; Inhibition (%) of pressor response to angiotensin I, 95 min ([4]; 95 min, dose: 45, 49 1.8 mg/kg, 4, 46 1.3, 50 1.4, 76 2.0, 77 1.5): 10.3% |
| C[C@H](CS)C(=O)N1C(c2cccc([N+](=O)[O-])c2)SC[C@H]1C(=O)O (stereo partly shown) [Compound 34] | 180 nM | 2.5 nM | 400 nM | – |
| O=C(O)[C@@H]1CSC(c2ccccc2O)N1C(=O)CS (stereo partly shown) [Compound 44] | 560 nM | 5 nM | 2200 nM | – |
| O=C(O)[C@@H]1CSC(c2cccc(O)c2)N1C(=O)CCS (stereo partly shown) [Compound 52] | 71 nM | 1.5 nM | 210 nM | – |
| C[C@H](CS)C(=O)N1C(c2cccc(O)c2)SC[C@H]1C(=O)O (stereo partly shown) [Compound 54] | 150 nM | 1.7 nM | 230 nM | – |
| O=C(O)[C@@H]1CSC(c2ccc(O)cc2)N1C(=O)CCS (stereo partly shown) [Compound 56] | 460 nM | 5.5 nM | 1200 nM | – |
| O=C(O)[C@@H]1CSC(c2ccc(O)c(O)c2)N1C(=O)CCS (stereo partly shown) [Compound 58] | 520 nM | 5.8 nM | 2600 nM | – |
| C[C@H](CS)C(=O)N1C(c2cc(Cl)ccc2O)SC[C@H]1C(=O)O (stereo partly shown) [Compound 60] | 92 nM | 2 nM | 75 nM | – |
| COc1ccccc1C1SC[C@@H](C(=O)O)N1C(=O)[C@H](C)CS (stereo partly shown) [Compound 64] | 500 nM | 8 nM | 420 nM | – |
| COc1ccc(C2SC[C@@H](C(=O)O)N2C(=O)[C@H](C)CS)cc1 (stereo partly shown) [Compound 68] | 88 nM | 2.1 nM | 750 nM | – |
| COc1cc(C2SC[C@@H](C(=O)O)N2C(=O)[C@H](C)CS)cc(OC)c1OC (stereo partly shown) [Compound 71] | 410 nM | 9.4 nM | 390 nM | – |
| COc1cccc(C2SC[C@@H](C(=O)O)N2C(=O)CCS)c1O (stereo partly shown) [Compound 73] | 36 nM | 1.1 nM | 93 nM | – |
| COc1ccc(C2SC[C@@H](C(=O)O)N2C(=O)CCS)c(O)c1 (stereo partly shown) [Compound 75] | 140 nM | 3.1 nM | 200 nM | – |
| COc1cc(C2SC[C@@H](C(=O)O)N2C(=O)[C@H](C)CS)ccc1O (stereo partly shown) [Compound 79] | 210 nM | 3.2 nM | 1300 nM | – |
| C[C@H](CS)C(=O)N1C(c2ccc3c(c2)OCO3)SC[C@H]1C(=O)O (stereo partly shown) [Compound 81] | 140 nM | 0.94 nM | 240 nM | – |
| C[C@H](CS)C(=O)N1C(c2cccc3ccccc23)SC[C@H]1C(=O)O (stereo partly shown) [Compound 83] | 360 nM | 13 nM | 1300 nM | – |
| C[C@H](CS)C(=O)N1C(c2ccco2)SC[C@H]1C(=O)O (stereo partly shown) [Compound 85] | 240 nM | 3.7 nM | 340 nM | – |
| Cc1ccc(C2SC[C@@H](C(=O)O)N2C(=O)[C@H](C)CS)o1 (stereo partly shown) [Compound 87] | 460 nM | 2.6 nM | 730 nM | – |
| C[C@H](CS)C(=O)N1C(c2cccs2)SC[C@H]1C(=O)O (stereo partly shown) [Compound 91] | 700 nM | 10 nM | 370 nM | – |
| C[C@H](CS)C(=O)N1C(c2cccnc2)SC[C@H]1C(=O)O (stereo partly shown) [Compound 93] | 140 nM | 2.9 nM | 840 nM | – |
| C[C@H](CS)C(=O)N1C(c2ccncc2)SC[C@H]1C(=O)O (stereo partly shown) [Compound 95] | 83 nM | 3.1 nM | 110 nM | – |
| C[C@H](CS)C(=O)N1CSC[C@H]1C(=O)O [Compound 96, reference compound] | 170 nM | 2.6 nM | 260 nM | – |
